Source: patent US20210228531A1, “TARGETED TREATMENT OF AUTISM SPECTRUM DISORDER AND OTHER NEUROLOGICAL OR PSYCHIATRIC DISORDERS” (Tufts Medical Center, Inc., priority 2018, published 2021)

Experiments:
[1] = after IP or oral administration; cited from earlier work
[2] = test system: vascular endothelial growth factor (VEGF); conditions: Jeong et al. 2011; cited from earlier work
[3] = test system: glucose transporter 1 (GLUT-1); conditions: Jeong et al. 2011; cited from earlier work
[4] = clinical trials (U.S. Pat. No. 3,995,061); cited from earlier work
hnRNP L [5] = experiment: Western Blot analysis of hnRNP L in cultured rat primary cortical neurons; type: cell-based
From the text: Compounds that modify hnRNP L levels are useful for the development of ASD/mental retardation/neurological disorders.

hnRNP L [6] = conditions: cited from earlier work
BIN1 = conditions: human osteosarcoma cells (U2OS), proteome analysis; cited from earlier work
[7] = human osteosarcoma cells (U2OS), proteome analysis

Row | SMILES | toxicity as assessed by LD50 [1] | expression of VEGF [2] | expression of GLUT-1 [3] | tolerability in clinical trials [4] | levels of hnRNP L (hnRNP L [5]) | increase in hnRNP L levels (hnRNP L [6]; [7]) [x] | increase in the levels of three proteins, including hnRNP L and BIN1 (hnRNP L [6]; [7]) [fold] | hnRNP L protein levels in vitro (hnRNP L [6]; in vitro (Kang et al. 2006)) | increase in BIN1 levels (BIN1) [x]
1 | CCOc1c(Cl)c(C)c(C=O)c(O)c1C/C=C(C)/C=C/C1(C)C(C)CCC(=O)C1C (stereo not shown) [4-O-ethyl-ascochlorin, 4-O-ethylascochlorin] | low toxicity | – | – | – | – | – | – | – | –
2 | COc1c(Cl)c(C)c(C=O)c(O)c1C/C=C(C)/C=C/[C@@]1(C)[C@H](C)CCC(=O)[C@@H]1C [MAC, 4-O-methylascochlorin] | low toxicity | increases the expression | increases the expression | well tolerated | – | – | – | – | –
3 | CC(/C=C/[C@@]1(C)[C@H](C)CCC(=O)[C@@H]1C)=C\Cc1c(O)c(Cl)c(C)c(C=O)c1O [ascochlorin] | – | – | – | – | increased levels of hnRNP L | 12 | ≥ 10 | increase hnRNP L protein levels | 10
